How the values were obtained:
[1] = system: rats; experiment: Anoxic seizure induced by gallamine triiodoethylate (antianoxic properties); type: in vivo, rats (OFA); conditions: 2 millimols/kg
From the text: The injection of a sufficient dose of a synthetic curariform substance such as gallamine triiodoethylate provokes in the rat paralysis of the diaphragm. The animal then dies by asphyxia.
Male rats of the OFA strain and weighing about 250 g. were first anesthetized with ether in order to enable tracheotomy to be performed and cortical electrodes to be inserted. Each rat was then maintained under conditions of artificial respiration by means of an appropriate apparatus and a paralysing dose of gallamine triiodoethylate was administered by intraperitoneal route to eliminate spontaneous breathing. The electrocorticogram, the electrocardiogram and the rectal temperature were registered. After a period of 30 minutes during which stabilization of the registrations was obtained the animal was treated with 2 millimols/kg of an oily solution of tri-n-propylacetic acid or an aqueous solution of one of its alkali metal salts. The artificial respiratory apparatus was stopped 5 minutes after treatment and note was taken of the cardiac frequency every 10 seconds as well as of the period of time between the stopping of the apparatus and the appearance of the flat tracing on the electrocorticogram. This period of time represents the period of survival of the animal. The value of the cardiac frequency corresponding to moment of appearance of the flat tracing was calculated by extrapolation.
The same test was performed on control animals but without administration of a compound of the invention.

[2] = system: mice; experiment: Posture reflex (hypnotic properties); type: in vivo, mice (OF 1); conditions: Mus musculus, ip, i.p., read-out: HD50, loss of posture reflex
Description: Male mice of the OF 1 strain, weighing about 25 g. were divided into batches of 10. The animals of each batch were given an intraperitoneal dose of the compound to be studied so that each batch received a higher dose than the preceding batch.
The numbers of animals which lost the reflex at various times after administration were noted.
In this way, the HD50 at different times after administration was determined i.e. the dose of the compound under study which caused 50% of the animals to lose the posture reflex at a given time after administration.

[3] = system: mice; experiment: Hole-board test (tranquillizing properties); type: in vivo, mice (OF 1); conditions: for Total number of holes explored: batch of 10
Description: This test enables a quantitative evaluation to be made of the exploring capabilities of mice in relation to their curiosity. The material comprises a board 40 cm × 40 cm and 1.7 cm thick in which 16 holes, 3 cm in diameter, have been cut. The board is placed upon four legs sufficiently high (1.5 m) for the holes to appear bottomless to the animals. The experiment is carried out in as great a silence as possible.
The test was performed on batches of 10 male OF 1 mice weighing about 23 g. The animals of each batch were given an intraperitoneal dose of the compound to be tested so that each batch received a higher dose than the preceding batch. […] Thirty minutes after administration, each batch was placed in the middle of the board and the total number of holes explored by each batch was noted every minute for 5 minutes.

[4] = system: mice; experiment: Pentylenetetrazol-induced seizure (anticonvulsant action); type: in vivo, mice (OF 1); conditions: Mus musculus, ip, i.p., 125 mg/kg pentylenetetrazol i.p.
Description: The purpose of this test which is carried out on mice is to determine whether the compounds of the invention, when given preventively by intraperitoneal route, are capable at certain doses of protecting some of the animals against the epileptic seizure produced by an adequate and predetermined dose of pentylenetetrazol which would be 100% fatal in the absence of the compound. The test was carried out on batches of 10 male OF 1 mice weighing about 25 g.

[5] = system: mice; experiment: Traction test (myorelaxant properties); type: in vivo, mice (OF 1); conditions: for Number of animals which have lost the traction reflex: groups of 10; for ED50: Mus musculus, ip, read-out: ED50, loss of traction reflex
Description: This test enables sense of balance as well as muscular tonus and strength to be evaulated.
The test is carried out on groups of 10 male mice of the OF 1 strain weighing about 25 g. It consists of suspending the mice by the front paws to a horizontally stretched wire. Note is first taken of the time required by a group of control animals to effect recovery i.e. to place at least one of their back paws on the wire.

[6] = system: mice; experiment: Evasion test (tranquillizing properties); type: in vivo; conditions: for Total number of exits per batch: batch of 28 mice; for Average time before first exit: controls 14
Description: This test enables the exploring capacities of mice to be studied. A parallelepipedic lidless plywood box is used which contains an inclined plane, also of plywood, covered with a fine mesh. A horizontal datum line is marked on the inclined plane 2 cm below the point at which the plane bears on the box edge. The whole device is placed in an artificially lit room away from all shrill noise. Any crossing, in an upward direction, by a mouse of the datum line is termed an "exit".
The test was carried out on batches of 28 mice weighing about 22 g. The animals of each batch received an intraperitoneal dose of the compound to be studied so that each batch received a higher dose than the preceding batch.
Thirty minutes after administration of the compound, the animals were placed in the box by batches and kept at the bottom for 10 seconds by a movable board. The average length or time after which the first exit occurred was noted as well as the total number of exits per batch every minute for 5 minutes. The same details were also recorded for a control batch which had not received the compound. The following results were obtained with the preferred compound of the invention namely sodium tri-n-propylacetate: […]

[7] = 0.25 h, 15 min. after administration
[8] = 0.5 h, 30 min. after administration

CCCC(CCC)(CCC)C(=O)[O-].[Na+] [Sodium tri-n-propylacetate, sodium tri-n-propylacetate]
Increase of period of survival versus controls [1]: 19%
Period of survival ([1]; controls 74.3 ± 2.3): 87.9 ± 3.7 s
Cardiac frequency when the flat tracing appears ([1]; controls 150, calculated by extrapolation): 109
ED50 [2, 7]: 120 mg/kg
ED50 [2, 8]: 130 mg/kg
ED50 ([2]; 0.75 h, 45 min. after administration): 150 mg/kg
ED50 ([2]; 1 h, 60 min. after administration): 200 mg/kg
Total number of holes explored ([3]; 50 mg/kg i.p., 1 min.): 15
Total number of holes explored ([3]; 50 mg/kg i.p., 2 min.): 13
Total number of holes explored ([3]; 50 mg/kg i.p., 3 min.): 14
Total number of holes explored ([3]; 50 mg/kg i.p., 4 min.): 19
Total number of holes explored ([3]; 50 mg/kg i.p., 5 min.): 17
Total number of holes explored ([3]; 75 mg/kg i.p., 1 min.): 2
Total number of holes explored ([3]; 75 mg/kg i.p., 2 min.): 6
Total number of holes explored ([3]; 75 mg/kg i.p., 3 min.): 3
Total number of holes explored ([3]; 75 mg/kg i.p., 4 min.): 1
Total number of holes explored ([3]; 75 mg/kg i.p., 5 min.): 7
Effect on the animals' curiosity ([3]; hole-board test, in words): tends to reduce the animals' curiosity
ED50 ([4]; 0.125 h, 7 min. 30 sec after administration): 78 mg/kg
ED50 [4, 7]: 66 mg/kg
ED50 [4, 8]: 110 mg/kg
Number of animals which have lost the traction reflex ([5]; 20 mg/kg i.p., 15 min.): 1
Number of animals which have lost the traction reflex ([5]; 20 mg/kg i.p., 30 min.): 2
Number of animals which have lost the traction reflex ([5]; 20 mg/kg i.p., 45 min.): 0
Number of animals which have lost the traction reflex ([5]; 50 mg/kg i.p., 15 min.): 0
Number of animals which have lost the traction reflex ([5]; 50 mg/kg i.p., 30 min.): 1
Number of animals which have lost the traction reflex ([5]; 50 mg/kg i.p., 45 min.): 2
Number of animals which have lost the traction reflex ([5]; 75 mg/kg i.p., 15 min.): 3
Number of animals which have lost the traction reflex ([5]; 75 mg/kg i.p., 30 min.): 0
Number of animals which have lost the traction reflex ([5]; 75 mg/kg i.p., 45 min.): 1
Number of animals which have lost the traction reflex ([5]; 100 mg/kg i.p., 15 min.): 8
Number of animals which have lost the traction reflex ([5]; 100 mg/kg i.p., 30 min.): 1
Number of animals which have lost the traction reflex ([5]; 100 mg/kg i.p., 45 min.): 0
Number of animals which have lost the traction reflex ([5]; 150 mg/kg i.p., 15 min.): 10
Number of animals which have lost the traction reflex ([5]; 150 mg/kg i.p., 30 min.): 10
Number of animals which have lost the traction reflex ([5]; 150 mg/kg i.p., 45 min.): 9
ED50 ([5]; 0.25 h): 80 mg/kg
ED50 ([5]; 0.5 h): 110 mg/kg
ED50 ([5]; 0.75 h): 130 mg/kg
Time of maximum myorelaxant activity after administration ([5]; intraperitoneal): 15 min
Activity index: NTD50/ED50 ([5]; rota rod NTD50 / traction ED50, 30 minutes after administration): 1.1
Total number of exits per batch ([6]; 50 mg/kg i.p., 1 min.): 54
Total number of exits per batch ([6]; 50 mg/kg i.p., 2 min.): 44
Total number of exits per batch ([6]; 50 mg/kg i.p., 3 min.): 43
Total number of exits per batch ([6]; 50 mg/kg i.p., 4 min.): 41
Total number of exits per batch ([6]; 50 mg/kg i.p., 5 min.): 28
Average time before first exit ([6]; 50 mg/kg i.p.): 25 s
Total number of exits per batch ([6]; 75 mg/kg i.p., 1 min.): 44
Total number of exits per batch ([6]; 75 mg/kg i.p., 2 min.): 37
Total number of exits per batch ([6]; 75 mg/kg i.p., 3 min.): 31
Total number of exits per batch ([6]; 75 mg/kg i.p., 4 min.): 34
Total number of exits per batch ([6]; 75 mg/kg i.p., 5 min.): 28
Average time before first exit ([6]; 75 mg/kg i.p.): 21 s

Source: patent US3958011A, “Compositions of tri-n-propylacetic acid and salts thereof and treatment of neurological disorders with such compositions” (priority 1972, dated 1976)
